Source: patent US20240190883A1, “KRAS PROTEIN DEGRADERS, PHARMACEUTICAL COMPOSITIONS THEREOF, AND THEIR THERAPEUTIC APPLICATIONS” (BioTheryX, Inc., priority 2021, published 2024)

Experiments:
Assay type in all cases: cell-based
Settings in all cases: 24 h, HiBiT signal normalized to CTG signal
KRAS protein [1] = biological target: T1, KRAS protein (Homo sapiens, UniProt P01116, G12D); experiment: HIBIT degradation assay, AsPC-1 cells
T1 construct: engineered to express a Hobbit-tagged endogenous KRAS protein; endogenous in cells; host or cells: AsPC-1, endogenous KRAS locus engineered with a HiBiT tag
T1 sequence (P01116 1-188 isoform P01116-2 G12D): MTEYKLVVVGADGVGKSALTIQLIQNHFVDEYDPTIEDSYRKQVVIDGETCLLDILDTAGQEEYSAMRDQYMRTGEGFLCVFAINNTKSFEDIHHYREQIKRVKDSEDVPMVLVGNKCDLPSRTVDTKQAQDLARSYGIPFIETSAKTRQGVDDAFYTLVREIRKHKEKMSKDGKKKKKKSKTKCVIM
Procedure: (§1) HEK293, MIA PaCa-2, AsPc-1, SW620, and H647 cells were engineered to express a […] endogenous KRAS protein. The HEK293 and MIA PaCa-2 cells were cultured in DMEM media supplemented with 10% fetal bovine serum, streptomycin, and penicillin. The AsPc-1, SW620, and H647 were cultured in RPMI media supplemented with 10% fetal bovine serum, streptomycin, and penicillin. The cells were seeded in white walled 96-well plates at 20,000 cells/well in 100 μL culture media in duplicate plates. After incubated at 37° C. under 5% CO2 overnight, the cells were treated with DMSO (control) or a compound, followed by the addition of 100 μL culture media to each well. After the cells were incubated for 24 h at 37° C. under 5% C02, 150 μL media were removed from each well and 50 μL NANOGLO-LGBIT lytic reagent were added to each well, and 50 μL CELLTITER-GLO (CTG) reagent was added to the duplicate plate. Following a 10-minute incubation with shaking, luminescence was measured using a Perkin Elmer ENVISION multimode plate reader. HiBiT signal was normalized to CTG signal. The results are summarized in Table 3, where “A” represents a percentage degradation value of no less than 50%; “B” represents a percentage degradation value of less than 50% and no less than 25%; “C” represents a percentage degradation value of less than 25% and no less than 10%; and “D” represents a percentage degradation value of less than 10%.

KRAS protein [2] = biological target: T2, KRAS protein (Homo sapiens, UniProt P01116); experiment: HIBIT degradation assay, HEK293 cells
T2 construct: engineered to express a Hobbit-tagged endogenous KRAS protein; endogenous in cells; host or cells: HEK293, endogenous KRAS locus engineered with a HiBiT tag
T2 sequence (P01116 1-188 isoform P01116-2): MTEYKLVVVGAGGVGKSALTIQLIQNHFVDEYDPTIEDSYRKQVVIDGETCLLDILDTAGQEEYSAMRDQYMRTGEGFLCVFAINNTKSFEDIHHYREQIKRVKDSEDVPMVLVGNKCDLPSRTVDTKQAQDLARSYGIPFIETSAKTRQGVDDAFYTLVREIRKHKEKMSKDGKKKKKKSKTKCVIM
Procedure: as §1

KRAS protein [3] = biological target: T3, KRAS protein (Homo sapiens, UniProt P01116, G12C); experiment: HIBIT degradation assay, MIA PaCa-2 cells
T3 construct: engineered to express a Hobbit-tagged endogenous KRAS protein; endogenous in cells; host or cells: MIA PaCa-2, endogenous KRAS locus engineered with a HiBiT tag
T3 sequence (P01116 whole entry G12C): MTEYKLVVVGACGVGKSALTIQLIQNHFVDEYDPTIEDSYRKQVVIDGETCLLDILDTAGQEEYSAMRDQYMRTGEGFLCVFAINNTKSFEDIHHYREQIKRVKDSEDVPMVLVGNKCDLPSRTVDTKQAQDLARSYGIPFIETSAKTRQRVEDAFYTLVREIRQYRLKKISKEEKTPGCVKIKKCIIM
Procedure: as §1

## Cc1nn2c(N3CCN(CCO)CC3)cc(-c3ccc(F)cc3)nc2c1-c1cccc(CCCCCN2CCN(C(=O)CNc3ccc4c(C5CCC(=O)NC5=O)nn(C)c4c3)CC2)c1 (stereo not drawn) [Compound D19, 3-(6-((2-(4-(5-(3-(5-(4-Fluorophenyl)-7-(4-(2-hydroxyethyl)piperazin-1-yl)-2-methylpyrazolo[1,5-a]pyrimidin-3-yl)phenyl)pentyl)piperazin-1-yl)-2-oxoethyl)amino)-1-methyl-1H-indazol-3-yl)piperidine-2,6-dione]
KRAS protein [1]; compound at 3 μM
  Effect on KRAS Protein Degradation, AsPC-1, 3 μM: C (a percentage degradation value of less than 25% and no less than 10%)
KRAS protein [1]; compound at 5 μM
  Effect on KRAS Protein Degradation, AsPC-1, 5 μM: C (a percentage degradation value of less than 25% and no less than 10%)
KRAS protein [2]; compound at 3 μM
  Effect on KRAS Protein Degradation, HEK293, 3 μM: D (a percentage degradation value of less than 10%)
KRAS protein [2]; compound at 5 μM
  Effect on KRAS Protein Degradation, HEK293, 5 μM: D (a percentage degradation value of less than 10%)
KRAS protein [3]; compound at 3 μM
  Effect on KRAS Protein Degradation, MIA PaCa-2, 3 μM: D (a percentage degradation value of less than 10%)
KRAS protein [3]; compound at 5 μM
  Effect on KRAS Protein Degradation, MIA PaCa-2, 5 μM: C (a percentage degradation value of less than 25% and no less than 10%)
